Measured values taken from PubChem BioAssay (NCI).
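Exposure lasted 48 hours, with cells grown in 96-well plates and compounds tested at five concentrations. GI50: concentration for 50% inhibition of growth. The concentration for full growth arrest is given as TGI.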

How the values were obtained:
Assay in all cases: NCI anticancer screen, dose series, 48 h
TK-10 renal = system: TK-10 renal
A498 renal = system: A498 renal
CCRF-CEM leukemia = system: CCRF-CEM leukemia
U251 CNS = system: U251 CNS
OVCAR-8 ovarian = system: OVCAR-8 ovarian
NCI-H226 lung = system: NCI-H226 lung
SK-MEL-5 melanoma = system: SK-MEL-5 melanoma
MALME-3M melanoma = system: MALME-3M melanoma
A549 NSCLC = system: A549 NSCLC
NCI-H460 lung = system: NCI-H460 lung

Row | SMILES | TGI (TK-10 renal) | TGI (A498 renal) | TGI (CCRF-CEM leukemia) | TGI (U251 CNS) | TGI (OVCAR-8 ovarian) | TGI (NCI-H226 lung) | TGI (SK-MEL-5 melanoma) | TGI (MALME-3M melanoma) | TGI (A549 NSCLC) | TGI (NCI-H460 lung) | GI50 (TK-10 renal) | GI50 (A498 renal) | GI50 (CCRF-CEM leukemia) | GI50 (U251 CNS) | GI50 (OVCAR-8 ovarian) | GI50 (NCI-H226 lung) | GI50 (SK-MEL-5 melanoma) | GI50 (MALME-3M melanoma) | GI50 (A549 NSCLC) | GI50 (NCI-H460 lung)
1 | CN(C)C(=S)/N=c1\ssc(=S)n1Cc1ccncc1 | 80.3 µM | 73.8 µM | 57 µM | 39 µM | 68.9 µM | > 100 µM | 17.4 µM | 50.2 µM | > 100 µM | 31.5 µM |  |  |  |  |  |  |  |  |  | 
2 | CC(C)CCC1(CCN)C(=O)NC(=O)NC1=O | > 100 µM | > 100 µM | 48.3 µM | > 100 µM | > 100 µM | > 100 µM | > 100 µM | > 100 µM | > 100 µM | > 100 µM |  |  |  |  |  |  |  |  |  | 
3 | C/C(=N/NC(=O)C[N+](C)(C)C)C(CN(C)C)C(=O)Nc1ccccc1 (stereo not drawn) | > 100 µM | > 100 µM | > 100 µM | > 100 µM | > 100 µM | > 100 µM | > 100 µM | > 100 µM | > 100 µM | > 100 µM |  |  |  |  |  |  |  |  |  | 
4 | c1c[nH]c(CN2CCOCC2)n1 | > 100 µM | > 100 µM | > 100 µM | > 100 µM | > 100 µM | > 100 µM | > 100 µM | > 100 µM | > 100 µM | > 100 µM |  |  |  |  |  |  |  |  |  | 
5 | CN1/C(=C\C=C\C2=[N+](C)c3ccccc3C2(C)C)C(C)(C)c2ccccc21 | 14.8 µM | 0.979 µM | 12.6 µM | 5.21 µM | 7.52 µM | 2.39 µM | 0.151 µM | 0.818 µM | 13.5 µM | 0.922 µM | 0.56 µM | 0.0556 µM | 0.176 µM | 0.0369 µM | 0.101 µM | 0.103 µM | 0.0322 µM | 0.0936 µM | 0.0413 µM | 0.0541 µM
6 | COc1ccc2c(c1)/C(=C/c1cc(OC)c(OC)c(OC)c1)C(=O)N2 | > 70.6 µM | 0.848 µM |  | 16.7 µM | > 100 µM | > 100 µM |  | > 100 µM | > 100 µM | > 100 µM | 1.19 µM | 0.146 µM | 0.253 µM | 0.407 µM | 1.28 µM | > 30.9 µM | 0.155 µM | 0.556 µM | 0.603 µM | 0.269 µM
7 | O=S(=O)(CCCl)c1ccc(Cl)cc1 | 6.44 µM | 9.94 µM | 20.9 µM | 27.5 µM | 12.9 µM | > 100 µM | 20.4 µM | 7.2 µM | 45.6 µM | 24 µM | 2.32 µM | 2.26 µM | 2.95 µM | 10.1 µM | 3.14 µM | 16 µM | 6.27 µM | 2.23 µM | 13 µM | 6.4 µM
8 | CC(C)(C)OC(=O)NCCCCCCCn1c2c(c3ccccc3c1=O)C(=O)c1ccccc1-2 | > 100 µM | 42.2 µM | > 100 µM | 89.5 µM | > 100 µM | 77.8 µM | 27.6 µM | > 100 µM | > 100 µM | > 100 µM | 38.3 µM | 4.74 µM | 76.1 µM | 28.9 µM | 21.5 µM | 31.3 µM | 9.84 µM | 37.2 µM | 31.8 µM | 28.6 µM
9 | O=C(N[C@@H](C[Se][Se]C[C@H](NC(=O)c1ccc(Br)cc1F)C(=O)O)C(=O)O)c1ccc(Br)cc1F | > 100 µM | > 100 µM | > 100 µM | > 100 µM | > 100 µM | > 100 µM | > 100 µM | > 100 µM | > 100 µM | > 100 µM | > 100 µM | > 100 µM | > 100 µM | > 100 µM | > 100 µM | > 100 µM | > 100 µM | > 100 µM | > 100 µM | > 100 µM
10 | Nc1ccc(/C=C/C(=O)NCc2cc3cc(-c4ccc(C(=O)N5CCC(F)(F)CC5)cc4)cc(-c4ccc(F)cc4)c3o2)cn1 | > 100 µM | > 100 µM | > 100 µM | > 100 µM | > 100 µM | > 100 µM | > 100 µM | > 100 µM | > 100 µM | > 100 µM | > 100 µM | > 100 µM | 0.083 µM | 1.16 µM | 0.0404 µM | > 100 µM | 14.2 µM | > 100 µM | > 100 µM | 10.9 µM
11 | CNC(=O)c1nn(C)c2c1C(C)(C)Cc1cnc(Nc3ccc(N4CCN(C)CC4)cc3)nc1-2 | > 10 µM | 0.861 µM | > 10 µM | > 10 µM | > 10 µM | > 8.57 µM | > 10 µM | > 9.24 µM | > 10 µM | > 10 µM | 0.116 µM | 0.139 µM | 1.58 µM | 0.846 µM | 3.17 µM | 0.958 µM | 7.44 µM | 0.431 µM | 0.682 µM | 0.408 µM
12 | C=C1C(O)CC[C@]2(C)C1C1OC(C)(C)O[C@]13CC(=O)C(C)=C([C@H]1OC(C)(C)OC12)C3(C)C (stereo partly drawn) | > 100 µM | > 100 µM | > 100 µM | > 100 µM | > 100 µM | > 100 µM | > 100 µM | > 100 µM | > 100 µM | > 100 µM |  |  |  |  |  |  |  |  |  | 
13 | c1ccc2[nH]c(-c3ccc(Nc4nc(N5CCCCC5)nc(N5CCOCC5)n4)cc3)nc2c1 | 9.26 µM | 4.18 µM | > 100 µM | 10 µM | 14.3 µM | 17.7 µM | 3.3 µM | 3.57 µM | 13.2 µM | 6.18 µM | 3.21 µM | 1.77 µM | 3.25 µM | 2.18 µM | 3.24 µM | 3.2 µM | 1.78 µM | 1.87 µM | 3.27 µM | 2.44 µM
14 | O=C1OCC2=C1C(c1ccccc1)c1cc3c(cc1N2CCO)OCO3 (stereo not drawn) | > 50 µM | > 50 µM | > 50 µM | > 50 µM | > 50 µM | > 50 µM | > 50 µM | > 50 µM | > 50 µM | > 50 µM | 32.7 µM | 3.38 µM | 4.54 µM | 3.01 µM | 12.1 µM | > 50 µM | 2.78 µM | > 50 µM | 14.7 µM | 2.07 µM
